{"source": "patent US9878984B2", "about": "“Anti-cancer compounds” (NORTHWESTERN UNIVERSITY, priority 2008, dated 2018)", "type_in_all_cases": "cell-based, human", "key": {"HeLa cells [1]": {"tested_on": "HeLa cells", "assay": "Transwell invasion assay", "conditions": "[GI99%], matrigel, 20 hr", "procedure": "Transwell Invasion Assay: HeLa cells were plated at 250,000 per 35 mm well and allowed to attach for 8 hr. The cells were washed with PBS and then treated for 4 hr with the [GI99%] of each compound (or 1% DMSO—vehicle control) in serum free media to decrease the number of invading cells in the beginning of the experiment due to a preliminary lack of drug exposure. The cells were then trypsinized and counted by trypan blue exclusion with a hemacytometer (Sigma—St. Louis, Mo.). Eight micron pore size control well inserts for 12 well plates (BD Biosciences) were coated with 100 μL 1 mg/mL matrigel (Sigma—St. Louis, Mo.) and allowed to solidify at room temperature for 1 hr. The excess matrigel was aspirated and the inserts were gently washed with PBS. The cells were seeded at a density of 300,000 per insert well in a volume of 500 μL serum free media containing a derivative or vehicle. The inserts were then placed in wells containing 700 μL serum free media with the respective compound. After 20 hr the cells on the top of the membranes were gently removed with a cotton swab, the membranes then were fixed in methanol for 1 min, stained in Gills No. 3 Hematoxylin (Sigma—St. Louis, Mo.) for 5 min, rinsed in tap water, and allowed to dry overnight. The membranes were excised, mounted on slides, and the cells were counted under the 40× objective of a bright field microscope. The data are expressed as the average total number of invading cells counted in 20 fields of each membrane, as standardized to the vehicle control, from six experiments.\nEffect of derivatives on the malignant phenotype—invasion assay: If A1-A9 have differential targets, DNA binding specificity, or downstream effects they may differentially alter the malignant behavior of cells. Also, anti-cancer compounds can be efficacious against tumors in other ways besides inhibiting growth and inducing death of cancer cells; they can also alter the behavior of malignant cells. Therefore, the ability of A1-A9 and amonafide to alter the invasive behavior of cancer cells in a transwell (also known as Boyden chamber) invasion assay was evaluated, which determines the ability of cells to migrate through a proteinacious gel. This behavior is considered to be representative of cancer cell invasion through the basement membrane of the primary tumor environment. In this assay, treated cells are seeded on to the top of the matrigel-coated porous membrane, allowed to invade through the proteinacious gel onto the underside of the membrane, and then counted."}, "HeLa cells [2]": {"tested_on": "HeLa cells", "assay": "Perinucleolar compartment (PNC) prevalence reduction", "conditions": "[GI50%] for 72 hr", "procedure": "Perinucleolar Compartment (PNC) Reduction: HeLa cells (PNC prevalence ˜85%) were plated 5,000/well in glass bottom 96 well plates and allowed to attach for 8 hr. The cells were then treated with compounds at the respective [GI50%] for 72 hr and [GI99%] for 20 hr for each compound (total media volume was 200 μL/well with 1% DMSO). After treatment cells were immunofluorescently stained as previously described, but with a Texas Red labeled secondary antibody (Jackson) instead of a FITC labeled secondary antibody. PNC prevalence (% of non-apoptotic/non-mitotic cells with 1 or more PNCs) was determined by scoring >200 cells per well with fluorescent microscope (60× objective) and images were acquired with the digital camera and image acquisition software previously mentioned. Scale bar=10 μm. Data are expressed as the average PNC prevalence (% control) of three individual experiments.\nThe PNC is a unique structural marker that it is only found in malignantly transformed cancer cells, irrespective of tissue origin, and indicates cells that are capable of metastasis. […] Previous studies indicate that the PNC likely conveys a functional metastatic advantage to cancer cells. The PNC prevalence (% of cells with one or more PNC) in human breast cancer positively correlates with the progression of the disease and is always near 100% in distant metastases. […] The PNC prevalence reduction was determined for amonafide and A1-A9 at the respective [GI50%] and [GI99%] doses in HeLa cells, which have a high PNC prevalence of ˜85%."}, "Chk2": {"tested_on": "Chk2", "assay": "DNA damage response assay (pThr68-Chk2 / total Chk2 western blot)", "conditions": "HeLa cells, [GI99%], 20 hr, normalized to mitoxantrone", "procedure": "DNA Damage Response Assay: 250,000 HeLa cells were plated in 35 mm culture dishes and allowed to attach for 8 hr and were then treated with the [GI99%] of each compound for 20 hr (total media volume was […] with 1% DMSO). After treatment cells were lysed in 150 μL detergent buffer containing 1:100 v/v protease inhibitor cocktail (Sigma—St. Louis, Mo.). Lysates were run on denaturing 12% acrylamide gels and transferred to nitrocellulose membranes. The membranes were blocked in blotto, incubated in anti-pThr68-Chk2 antibody (Cell Signaling—Danvers, Mass.) at 1:500 v/v dilution in blotto overnight 4° C., washed, incubated in HRP conjugated anti-rabbit secondary antibody (Jackson) at 1:5,000 v/v dilution in blotto for 1 hr, and then developed. The membranes were then stripped with a reducing buffer, blocked in blotto, incubated in anti-Chk2 antibody (Biolegend—San Diego, Calif.) at 1:500 v/v dilution in blotto overnight at 4° C., washed, incubated in HRP conjugated anti-mouse secondary antibody (Jackson) at 1:5,000 v/v dilution in blotto for 1 hr, and then developed. Membranes were developed with PicoWest Developing Solution (Pierce) and exposed to film. The intensities of bands were quantified as described in the previous section. The data are expressed as the average ratio of pThr68-Chk2 to total Chk2 as normalized to the mitoxantrone control in each of three independent experiments.\nTopoisomerase inhibition by most mechanisms should cause activation of DNA damage response pathways because of the production of single and double strand DNA breaks, as is the case with amonafide. […] Therefore, measuring the DNA damage response at a fixed cytotoxic dose ([GI99%]) will determine the extent that DNA damage contributes to the cytotoxicity of these compounds. […] Activation of Chk2 was determined by measuring the ratio of pThr68-Chk2 to total Chk2 in HeLa cells treated with the [GI99%]."}, "HeLa cells [3]": {"tested_on": "HeLa cells", "assay": "MTS growth inhibition assay, HeLa cells", "conditions": "concentration used in topo II assay", "procedure": "Cell Culture: HeLa (cervical carcinoma), WI-38 (normal human […] fibroblasts), and MDA-MB-231 (breast carcinoma), cells were cultured in DMEM (Invitrogen—Carlsbad, Calif.) and PC-3M (metastatic prostate carcinoma) cells were cultured in RPMI-1640. Peripheral blood mononuclear cells (PBMCs) were voluntarily collected from a healthy laboratory worker by standard sterile phlebotomy techniques and isolated using Vacutainer CPT collection tubes (BD Biosciences—Bedford, Mass.). PBMCs were isolated freshly for each experiment. All DMEM and RPMI-1640 media was supplemented with 10% FBS (Atlanta Biologicals—Lawrenceville, Ga.) and 100 U/mL penicillin and streptomycin (Invitrogen). HUVEC (Human umbilical vein endothelial cells) were cultured in EGM-2 media with supplements provided in the manufacturers BulletKit (Lonza—Walersville, Md.). All cells were maintained at 37° C. and in a 5% CO2 atmosphere.\nGrowth Inhibition Assays: HeLa, MDA-MB-231, PC-3M, WI-38, and HUVEC cells were plated at 5,000 cells per well in 96 well plates and allowed to attach for 20 hr (8 hr for HeLa). The media was removed and 198 μL of fresh media was added to each well. […] Cell proliferation was measured at t=0 (time at start of treatment) and t=72 hr using MTS AQueous non-radioactive proliferation assay (Promega—Madison, Wis.). […] The absorbance at 490 nm in each well was read with a Spectramax 250 plate reader (Molecular Devices—Sunnyvale, Calif.). […] Data were fit to one site dose response curves in order to obtain specific growth inhibitory concentrations and the relative standard errors of the mean for these concentrations were calculated by the XLfit4 software. Statistical significance (p value) for the selectivity and all subsequent assays was determined with the two tailed homoscedastic Student's t-test. […]"}, "[4]": {"tested_on": "topoisomerase II (topo II)", "assay": "Topoisomerase II inhibition assay (topo II-DNA cleavable complexes in treated cells)", "conditions": "HeLa cells, [GI99%], 20 hr, normalized to mitoxantrone", "protocol": "In Vitro Topoisomerase Inhibition: HeLa cells were plated at a density of 1.5 million in 35 mm wells and allowed to attach for 20 hr. They were then treated with each compound at the [GI99%] in 10 mL media for 20 hr. In vitro topoisomerase II inhibition was quantified using TopoGEN's Topoisomerase II In vivo Link Kit according to the protocol included with the kit and according to a previously published protocol [24] with slight modifications. In summary, DNA was isolated from sarkosyl lysed cells, layered on a cesium chloride gradient (total volume ˜7 mL), ultra-centrifuged, and then fractionated to 0.5 mL. The fractions were diluted 1:4 v/v in PBS and the fractions containing the genomic DNA were determined by measuring the absorbance at 260 nm for each fraction. The fractions were then loaded into a slot blotting apparatus and pulled through a nitrocellulose membrane by vacuum. The membrane was blocked in 5% w/v milk in 1×TBST (blotto) for 2 hr, incubated in 1:5,000 v/v topoisomerase II (topo II) primary antibody (TopoGEN) in blotto for 1 hr, washed, and incubated in 1:2,000 v/v HRP conjugated anti-rabbit secondary antibody (Jackson—West Grove, Pa.) in blotto for 45 min, washed and developed with SuperSignal West Pico Chemiluminescent Substrate (Pierce—Rockford, Ill.). The data were processed by dividing the intensity of the 2 or 3 most intense topo II immuno-reactive bands by the amount of DNA in the respective fractions. The band intensity was determined by scanning the developed films with a Kodak Image Station 440 CF and measuring the average pixel intensity of an area slightly larger than each band and subtracting the median background pixel intensity of the perimeter of the same area using Kodak MI software. Etoposide (TopoGEN) and mitoxantrone (Sigma—St. Louis, Mo.) are topo II inhibitors used as positive controls. […] Data were standardized to mitoxantrone in each of three independent experiments. […]"}}, "note": "“Also recorded” adds a separate entry of the source."}
{"smiles": "CCN(CC)c1ccc2c3c(cccc13)C(=O)N(CCN(C)C)C2=O", "note": "[A8, 6-diethylamino-2-[2-(dimethylamino)ethyl]-1H-benz[de]isoquinoline-1,3(2H)-dione]", "values": [{"measurement": "invasive behavior (% invading cells vs vehicle)", "setting": "HeLa cells [1]", "value": "did not significantly alter the invasive behavior of HeLa cells compared to the control"}]}
{"smiles": "COCCNc1ccc2c3c(cccc13)C(=O)N(CCN(C)C)C2=O", "note": "[A4, 6-methoxyethylamino-2-[2-(dimethylamino)ethyl]-1H-benz[de]isoquinoline-1,3(2H)-dione]", "values": [{"measurement": "invasive behavior (% invading cells vs vehicle)", "setting": "HeLa cells [1]", "value": "greatly decreases invasion compared to amonafide and control"}, {"measurement": "PNC prevalence reduction at [GI50%]", "setting": "HeLa cells [2]", "value": "able effectively reduce the PNC; also recorded: reduces PNC prevalence to the same extent as amonafide; also recorded: can significantly reduce PNC prevalence"}]}
{"smiles": "CCCNc1ccc2c3c(cccc13)C(=O)N(CCN(C)C)C2=O", "note": "[A2, 6-propylamino-2-[2-(dimethylamino)ethyl]-1H-benz[de]isoquinoline-1,3(2H)-dione]", "values": [{"measurement": "DNA damage response (ratio of pThr68-Chk2 to total Chk2)", "setting": "Chk2", "value": "evoked the strongest DNA damage response"}]}
{"smiles": "COc1cc([C@@H]2c3cc4c(cc3[C@@H](O[C@@H]3O[C@@H]5CO[C@@H](C)O[C@H]5[C@H](O)[C@H]3O)[C@H]3COC(=O)[C@H]23)OCO4)cc(OC)c1O", "note": "[etoposide]", "values": [{"measurement": "[IC99%]", "setting": "HeLa cells [3]", "value": 9.62, "unit": "µM"}, {"measurement": "stabilization of topo II-DNA cleavable complexes", "setting": "[4]", "value": "caused formation of abundant drug stabilized topo II-DNA cleavable complexes"}]}
{"smiles": "O=C1c2c(O)ccc(O)c2C(=O)c2c(NCCNCCO)ccc(NCCNCCO)c21", "note": "[mitoxantrone]", "values": [{"measurement": "[IC99%]", "setting": "HeLa cells [3]", "value": 1.01, "unit": "µM"}, {"measurement": "stabilization of topo II-DNA cleavable complexes", "setting": "[4]", "value": "caused formation of abundant drug stabilized topo II-DNA cleavable complexes"}]}
{"smiles": "C=CCNc1ccc2c3c(cccc13)C(=O)N(CCN(C)C)C2=O", "note": "[A3, 6-allylamino-2-[2-(dimethylamino)ethyl]-1H-benz[de]isoquinoline-1,3(2H)-dione]", "values": [{"measurement": "invasive behavior (% invading cells vs vehicle)", "setting": "HeLa cells [1]", "value": "did not significantly alter the invasive behavior of HeLa cells compared to the control"}]}
{"smiles": "CC[C@@]1(O)C(=O)OCc2c1cc1n(c2=O)Cc2cc3ccccc3nc2-1", "note": "[camptothecin]", "values": [{"measurement": "[IC99%]", "setting": "HeLa cells [3]", "value": 0.28, "unit": "µM"}, {"measurement": "stabilization of topo II-DNA cleavable complexes", "setting": "[4]", "value": "did not cause the stabilization of topo II-DNA cleavable complexes"}]}
